Patent US20070213291A1, “Therapeutically useful synthetic oligonucleotides” (priority 1999, published 2007)

Assays:
[1] = system: MCF-7 human breast cancer cells; experiment: MCF-7 human breast tumor xenografts in female nude BALB/c mice; format: in vivo; conditions: after 4 weeks of treatment, compared with other groups (group 1 saline)
Experimental: MCF-7 human breast cancer cells are implanted subcutaneously as xenografts, in female nude BALB/c mice. The mice are divided into 6 groups of 10 mice. […] After 4 weeks of treatment, the mice are sacrificed and tumor mass is determined.

[2] = Melting temperature (Tm) of sequences; format: physicochemical
[3] = system: MCF-7 human breast cancer cells; experiment: Cell cycle stage in MCF-7 cells (propidium iodide flow cytometry); format: cell-based; conditions: MCF-7, 5×10^5 cells/ml, 24 h
Experimental: Cell cycle stage was determined using a […]™ PLUS DNA commercial kit (Becton Dickinson). Briefly, nuclei from cells were obtained by dissolving the cell membrane in a nonionic detergent, eliminating the cell cytoskeleton and nuclear proteins with trypsin, digesting the cellular RNA with RNase and stabilizing the nuclear chromatin with spermine. Propidium iodide was added to the cell nuclei and their fluorescence was analyzed in a flow cytometer equipped with electronic doublet discrimination capability (FACSCalibur, Becton Dickinson, San Jose, Calif.). Accumulation of cells in G0/G1, early S (SE), mid S (SM), late S (SL) or G2/M phases of the cell cycle was analyzed using MODFIT LT software (Verity Software House Inc., Topsham, Mass.).
Exponentially growing Jurkat human leukemia T cells (Table 28) and MCF-7 human breast cancer cells (5×10^5 cells/ml) (Table 29) were incubated for 24 h with 2, 6, 15, 18, 27 and 45 base sequences containing A, C, G and T. The cells were collected and centrifuged and cell cycle stage was determined.

## GGGTGG [SEQ ID NO:25]
[1]
  tumor mass: less tumor mass than group 1 mice
[2]
  melting temperature (Tm): 2.5 °C
[3]
  % cells in phase: G0/G1: 21.9%
  % cells in phase: G2/M: 17.4%
  % cells in phase: SE: 27.6%
  % cells in phase: SL: 10.9%
  % cells in phase: SM: 22.2%
  Arrest (cell cycle): End SM
